Test results: patent US10149809B2, “Skin aging inhibitor and concentrate of resveratrol 3-O-α-glucoside” (priority 2014, dated 2018)

What was measured:
IL-1β gene = experiment: Reduction of inflammation through pretreatment: IL-1β gene expression, Poly I:C; type: cell-based; details: normal human epidermal keratinocytes, pretreatment 0.001 wt % 24 hours, then Poly I:C 1 μg/mL 9 hours; control = 100%, comparative group 871
Method: Normal human epidermal keratinocytes were seeded into 12-well culture plates at 5×10^4 cells per well. As the medium, EpiLife KG-2 medium (basal medium) supplemented with insulin, hEGF, hydrocortisone, anti-microbial agents, and BPE was used, and the cells were preincubated in 5% CO2 at 37° C. for 48 hours. Further, the cells were incubated for additional 24 hours in a medium obtained by removing hydrocortisone only from the basal medium (assay medium). Next, the medium was replaced with a sample medium obtained by supplementing the assay medium with resveratrol 3-O-α-glucoside to a concentration of 0.001 wt %, the cells were cultured in 5% CO2 at 37° C. for 24 hours, and the cultured cells were pretreated with resveratrol 3-O-α-glucoside. […] After the medium was removed and the cells were washed with PBS, total RNA was extracted from the cells, and the level of expression of the proinflammatory cytokine IL-1β gene was quantified by real time PCR. […]
Taking as 100% the level of expression of the IL-1β gene for the control group, a relative ratio of the expression level of the IL-1β gene for each of the comparative group and the resveratrol 3-O-α-glucoside-supplemented group (IL-1β gene expression ratio, %) was calculated. […]

sirtuin 1 gene = experiment: Sirtuin 1 gene expression-promoting effect (1); type: cell-based; details: normal human epidermal keratinocytes, 0.02 wt %, 72 hours; control = 100%
Method: Normal human epidermal keratinocytes were seeded into 12-well culture plates at 7.5×10^4 cells per well. As the medium, EpiLife KG-2 medium supplemented with insulin, hEGF, hydrocortisone, anti-microbial agents, and BPE was used (basal medium), and the cells were preincubated in 5% CO2 at 37° C. for 72 hours. The medium was removed and then replaced with a sample medium supplemented with resveratrol 3-O-α-glucoside to a concentration of 0.02 wt %, and the cells were cultured in 5% CO2 at 37° C. After 72 hours, total RNA was extracted from the cells, and the level of expression of the sirtuin 1 gene was quantified by real time PCR. As a control group, cells were cultured without resveratrol 3-O-α-glucoside, and total RNA collected from these cells was used.
Taking as 100% the level of expression of the sirtuin 1 gene for the control group, a relative ratio of the expression level of the sirtuin 1 gene for the resveratrol 3-O-α-glucoside-supplemented group (SIRT 1 gene expression ratio, %) was determined. In the measurement of the expression level of the sirtuin 1 gene, PPIA was used for internal standard correction.

[1] = tested on: matrix metalloproteinase 9 (MMP9) gene; experiment: MMP9 gene expression in normal human dermal fibroblasts; type: cell-based; details: 0.001 wt %, 24 hours, control = 100%
Method: Using normal human dermal fibroblasts, the effect of resveratrol 3-O-α-glucoside on matrix metalloproteinase 1 (MMP1) and 9 (MMP9) genes in the dermis was investigated.
Normal human dermal fibroblasts were seeded into 12-well culture plates at 9×10^4 cells per well. As the medium, 10 vol % FBS (Fetal Bovine Serum)-containing DMEM medium (basal medium) was used, and the cells were preincubated in 5% CO2 at 37° C. for 24 hours. The medium was removed and then replaced with a basal medium supplemented with 0.001 wt % of resveratrol 3-O-α-glucoside, and the cells were cultured in 5% CO2 at 37° C. After 24 hours, total RNA was extracted from the cells, and the levels of expression of the MMP1 and MMP9 genes were quantified by real time PCR. As a control group, cells were cultured without resveratrol 3-O-α-glucoside, and total RNA collected from these cells was used.
Taking as 100% the level of expression of each of the MMP1 and MMP9 genes for the control group, a relative ratio of the expression level of each of the MMP1 and MMP9 genes for the resveratrol 3-O-α-glucoside-supplemented group (MMP1 and MMP9 gene expression ratios, %) was determined. In the measurement of the expression level of each of the MMP1 and MMP9 genes, GAPDH (glyceraldehyde 3-phosphate dehydrogenase) was used for internal standard correction.

[2] = tested on: skin model (EPI-200X; MatTek); type: in vitro ADME, human
Method: Using a three-dimensional human skin model, permeabilities of resveratrol 3-O-α-glucoside and resveratrol into the skin model when administered via the skin surface were compared.
Resveratrol 3-O-α-glucoside or resveratrol (Tokyo Chemical Industry Co., Ltd.) was prepared into a 0.2 wt % solution or suspension with the addition of PBS, and the resulting solution was used as a test substance. The skin model (EPI-200X; MatTek) was loaded into a special fixture (EPI-100-FIX; MatTek), and placed in the 6-well plate of the receiver. One-hundred microliters of the test substance were added to the horny layer side, and 5 mL of PBS was added to the receiver side. After being allowed to stand at 37° C. for 20 hours, the skin model was collected, and the surface of the skin model was washed well with PBS. The skin model after being washed was homogenized in PBS. After the homogenate was centrifuged, resveratrols in the supernatant were quantified using HPLC under the same conditions as described in Production Example 1 above, and the amount of resveratrols was converted into the equivalent of agly cones.

[3] = Storage stability in 30 vol % aqueous ethanol (coloration, residual content); type: physicochemical; details: 2 mM in 30 vol % aqueous ethanol, 40° C., light-tight, 6 months
Method: Each of resveratrol 3-O-α-glucoside (produced in Production Example 1), resveratrol (Tokyo Chemical Industry Co., Ltd.), and resveratrol 4′-O-α-glucoside (produced in Production Example 1) was dissolved in a 30 vol % aqueous solution of ethanol to a concentration of 2 mM, and the solution was stored at 40° C. under light-tight conditions. The coloration of the solution after being stored for 6 months was visually observed. Further, absorbances at 430 nm of the solution before and after the storage were measured, and the residual amount of each of the components in the solution was analyzed using HPLC. HPLC was performed under the same conditions as those described in Production Example 1.

tyrosinase = details: Non-Patent Literatures 1 and 2; cited from earlier work

SMILES	IL-1β Gene Expression Ratio (%) (IL-1β gene)	SIRT 1 Gene Expression Ratio (%) (sirtuin 1 gene)	MMP9 Gene Expression Ratio (%) [1] [%]	amount of permeation into the skin model relative to resveratrol [2] [times]	Coloration: Difference between Absorbances at 430 nm (Δ A 430) before and after Storage [3]	Coloration: Visual Observation [3]	Residual Content (%) ([3]; HPLC)	tyrosinase inhibitory effect compared to resveratrol (tyrosinase)
OC[C@H]1O[C@H](Oc2cc(O)cc(C=Cc3ccc(O)cc3)c2)[C@H](O)[C@@H](O)[C@@H]1O [Resveratrol 3-O-α-Glucoside, resveratrol 3-O-α-glucoside]	697	171	45	3.5	0.03	colorless	93	–
OC[C@H]1O[C@@H](Oc2cc(O)cc(/C=C/c3ccc(O)cc3)c2)[C@H](O)[C@@H](O)[C@@H]1O [Resveratrol 3-O-β-Glucoside, resveratrol 3-O-β-glucoside]	–	–	–	–	–	–	–	inferior
